This is an account of results in US20150250746A1, “ACAMPROSATE FORMULATIONS, METHODS OF USING THE SAME, AND COMBINATIONS COMPRISING THE SAME” (Synchroneuron Inc., priority 2013, published 2015).

The conditions of data set [1]: in vivo; cited from earlier work.
Data set [2] has as its system abnormal movements. As to the kind of experiment: Transgenic mouse models with movement disorders and hyperglutamatergic states. In kind it is in vivo. The settings on record: steadily-maintained blood level; Per2(Brdm1) deletion or ENT1(-/-) mice.
For data set [3], the system named is abnormal chewing movements. The experiment in a line: Rat model of tardive dyskinesia (haloperidol-induced abnormal chewing movements). It counts as in vivo. The settings on record: steadily-maintained blood level; haloperidol-exposed rats. As to the method:
Acamprosate is tested using a rat model of tardive dyskinesia looking at abnormal chewing movements produced in rats by exposing them for several weeks to haloperidol, a potent first-generation neuroleptic. […] Rats then are dosed with acamprosate in a way that matches the therapeutic blood level for no more than 12 hours out of 24, to confirm that this reduces the involuntary movements.

In data set [4] the test system is tardive dyskinesia. As to the kind of experiment: Clinical cases: acamprosate in patients with tardive dyskinesia. It counts as in vivo, human. Particulars: for relief of TD involuntary movements: Case 2. The procedure: Case 1: A person had long-standing tardive dyskinesia induced by treatment of schizoaffective disorder with a variety of neuroleptics and mood stabilizers. Their TD was characterized by side to side movements of the jaw, grimacing movements, rocking of the trunk, and continual involuntary kicking, leg-crossing, and twisting movements of their legs and feet. At the time they presented for treatment of their TD they were treated for their mental illness with lamotrigine and quetiapine, a second-generation neuroleptic.
To test the hypothesis that the efficacy of acamprosate was related to adequate time above a threshold blood level the patient was asked to try taking 1332 mg of acamprosate once a day.
CASE 2: A person had been treated with acamprosate for several years for TD due to exposure to several neuroleptics for schizoaffective disorder. They were currently treated with lamotrigine and quetiapine for their mental illness, and was taking acamprosate 1032 mg+999 mg+1032 mg on a three times daily basis. […] To test the therapeutic threshold hypothesis the patient was asked to try 1032 mg of acamprosate once a day in the morning. […] They noted that when they got relief of their involuntary movements they also had less anxiety and agitation than when the movements were present.

Data set [5] has as its system cultured rat hippocampus neurons. As to the kind of experiment: Organotypic hippocampal slice model of glutamate neurotoxicity. It counts as cell-based. Particulars: 200 μM calcium acamprosate 8 hr or 5 days, removed from medium for up to eight hours. As to the method:
The study is designed to test whether pre-treatment with acamprosate can have long-term neuronal protective effects against glutamate neurotoxicity. The study uses an in vitro organotypic hippocampal slice model. The study assesses whether less than 24 hours per day of exposure to a sufficient level of acamprosate can offer 24-hour therapeutic actions in neuropsychiatric disorders. […] This supports, among other things, the therapeutic use of acamprosate in neuropsychiatric disorders because the latter are related to the effect of acamprosate to decrease glutamate effects at NMDA and metabotropic glutamate receptors.
Hippocampal slices derived from 8-day-old Sprague Dawley rats are plated and subsequently exposed to a relatively acute (8 hour) or more chronic (5 day) acamprosate treatment. The slices are then removed from the medium containing acamprosate and returned to control medium for either 1 or 8 hours. […] The slices are then placed in normal medium with propidium iodide for 24 hr and assessed for neurotoxicity/neuroprotection as described below. […]
Neurotoxicity/neuroprotection assessment: For the final medium change, the plates are moved into normal media containing propidium iodide (PI) added to each well for 24 hours. PI only penetrates cell membranes of damaged or potentially dying cells, binding to DNA to produce a bright, intensified red fluorescence at 630 nm. […]

For data set [6] the following is noted: cited from earlier work.
The nature of data set [7]: Gastric retention of swellable acamprosate tablet in dog model, induction of fed mode with alpha-lipoic acid. In kind it is in vivo. The settings on record: of 800 mg swellable acamprosate tablet after 125 mg alpha-lipoic acid given 15 minutes before; four beagle dogs.

As to `CC(=O)NCCCS(=O)(=O)O` [acamprosate, calcium N-acetylhomotaurinate], the “decrease of bioavailability by food” value in data set [1] is “approximately 30%”. Also, in data set [2], the abnormal movements result is listed as “reduce or eliminate the abnormal movements”. In addition, the abnormal chewing movements entry in data set [3] was “reduce or eliminate the abnormal movements”. The “relief of TD symptoms” value is on record as “partial relief of symptoms” in data set [4] (Case 1, 666 mg three times a day); “complete relief of their TD” in data set [4] (Case 1, 999 mg three times a day); “free of involuntary movements of TD” in data set [4] (Case 1, 1332 mg once a day). For the same molecule, the anxiety and agitation entry in data set [4] (Case 1, 999 mg three times a day with perphenazine) is “relief of anxiety and agitation”. Besides, the side effects result in data set [4] (Case 1, 1332 mg once a day) was “significant GI side effects of diarrhea and abdominal cramps”. Also, the “relief of TD involuntary movements” value in data set [4] (999 mg three times a day) is “did not give full relief”; in data set [4] (1032 mg morning plus second dose of 1032 mg 8 to 10 hours later), “complete relief of symptoms”; in data set [4] (1032 mg once a day in the morning), “free of movements in the morning and early afternoon but movements returned in the evening”; in data set [4] (1032 mg+999 mg+1032 mg three times daily) it was “completely relieved their involuntary movements of TD”. Moreover, in data set [5], the “protection of neurons from challenge with a toxic level of a glutamate agonist” value is recorded as “persistent effect”. For the same molecule, the solubility entry in data set [6] was “high solubility”. Also, in data set [6], the “solubility in gastric juice” value was “immediately and completely soluble”.

For the molecule `O=C(O)CCCCC1CCSS1` (stereo not drawn) [alpha-lipoic acid], in data set [7], the “Average gastric retention time” value turned out to be 2.8 h, the “Maximum gastric retention time” value was determined as 5 h and the “Minimum gastric retention time” value turned out to be 1.5 h.
